Data taken from patent US8518988B2, “Polymorph of the hydrochloride of the (4-hydroxycarbamoyl-phenyl)-carbamic acid (6-dimethylamino methyl-2-naphthalenyl) ester” (Chemi SPA, priority 2010, dated 2013).

Tests used:
[1] = Comparative solubility in 0.9% sodium chloride solution (isotonic solution); format: physicochemical; details: 37° C.; for Solubility: 10 mg in 10 ml 0.9% sodium chloride solution, agitated 24 hours; for Relative solubility vs. form I: 0.9% sodium chloride solution, 24 hours
Protocol: As a matter of fact, a comparative experiment between form I of the compound (A) (monohydrate prepared as described in U.S. Pat. No. 7,329,689) and form II of compound (A), subject of the present invention, was carried out.
10 mg of compound (A) in crystalline form I were agitated in 10 ml of a 0.9% sodium chloride solution (isotonic solution) at 37° C. for 24 hours. The concentration of the product in liquid phase was measured at the end.
Table 1 indicates the obtained solubility data.

[2] = Stability test of crystalline form at 40° C., 75% humidity, analysed by PXRD; format: physicochemical; details: thin layer on Petri dish, samples after 2, 7 and 15 days
Protocol: FIG. 5 describes the profile of the stability diffractograms of ITF 2357 of form II at 40° C., 75% relative humidity at different times. In particular, the first diffractogram from the bottom is performed at time 0, the second diffractogram from the bottom is performed after 2 days, the third diffractogram from the bottom is performed after 7 days and the fourth diffractogram from the bottom is performed after 15 days.
In detail, a sample of form II of ITF 2357 was deposited in a thin layer having a thickness of about 0.5 cm on a Petri dish and placed in an environment with a constant humidity of 75%, at a constant temperature of 40° C. for two weeks. Samples were taken after 2, 7 and 15 days and analysed through Powder X Ray Diffraction (PXRD). The results of such experiments were summarised in FIG. 5, where the diffractograms obtained from the samples of the various collections were indicated overlapped.

| SMILES | Solubility [1] [µg/mL] | Relative solubility vs. form I [1] | Relative solubility vs. form I ([1]; listed as form II) | Stability of the crystalline form (PXRD) [2] |
| --- | --- | --- | --- | --- |
| CN(C)Cc1ccc2cc(OC(=O)Nc3ccc(C(=O)NO)cc3)ccc2c1.Cl [Form I, hydrochloride of the (4-hydroxycarbamoyl-phenyl)-carbamic acid (6-dimethylamino methyl-2-naphtalenyl) ester, reference compound] | 154 | 1.00 | – | – |
| CN(C)Cc1ccc2cc(OC(=O)Nc3ccc(C(=O)NO)cc3)ccc2c1.Cl [Form II, hydrochloride of the (4-hydroxycarbamoyl-phenyl)-carbamic acid (6-dimethylamino methyl-2-naphtalenyl) ester] | 226 | 1.47 | 1.47 | no modifications of the crystalline form was observed |
